Test results from PMC4767466, “Identification of a novel platelet antagonist that binds to CLEC-2 and suppresses podoplanin-induced platelet aggregation and cancer metastasis” (Oncotarget, 2015).

Columns and labels:
[1] = molecular target: T1, CLEC-2 (C-type lectin-like receptor 2) (Homo sapiens, UniProt Q9P126); experiment: SPR (Biacore T200, CLEC-2 amine-coupled to CM5 chip, equilibrium fit); format: binding
T1 construct: gene CLEC1B; recombinant CLEC-2

[2] = molecular target: CLEC-2 (Homo sapiens) (UniProt Q9P126); details: cited from earlier work
Sequence of CLEC-2 (Homo sapiens) (Q9P126 whole entry): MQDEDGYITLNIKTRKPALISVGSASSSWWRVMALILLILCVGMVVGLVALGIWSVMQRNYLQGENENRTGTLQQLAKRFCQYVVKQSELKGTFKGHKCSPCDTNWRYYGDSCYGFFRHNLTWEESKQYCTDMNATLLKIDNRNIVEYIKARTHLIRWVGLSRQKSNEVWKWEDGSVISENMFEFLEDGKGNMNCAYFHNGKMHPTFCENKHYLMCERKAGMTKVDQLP

T1 sequence (Q9P126 whole entry): as above

Kd [1] [µM]	Compound	Kd [2] [µM]
33.2 ± 1.9	O=C(NCCNC(=O)c1cc([N+](=O)[O-])ccc1O)c1ccccc1 [2CP]	–
–	podoplanin (from UniProt Q86YL7)	24.5
